Data set [1] relates to apomorphine-induced emesis. Kind of data set: Inhibitory effect on apomorphine-induced emesis in dog. In kind it is in vivo, Beagle dogs. As to conditions: Canis lupus familiaris, read-out: ED50 apomorphine-induced emesis, dog. As for the experimental part:
Inhibitory Effect on Apomorphine-induced Emesis
Three to four Beagle dogs (body weight: 8-15 kg) per group were used to examine the inhibitory effect of the test compounds on apomorphine-inducedemesis. This test has been commonly conducted as a method for detecting dopamine blocker. Each of the test animals was orally administered with a prescribed dose of a test compound as dissolved or suspended in 0.5% tragacanth solution, and two hours thereafter, was administered with apomorphine hydrochloride (0.3 mg/kg) by subcutaneous injection at the back.

The subject of data set [2] is cisplatin-induced emesis. Kind of data set: Effect on cisplatin-induced emesis in ferrets. It counts as in vivo, Male ferrets. The note with it: Mustela putorius, 0.5 h, read-out: ED50 cisplatin-induced emesis, ferret. The method, then: Effect on Cisplatin-induced Emesis in Ferrets
Male ferrets (Marshall Lab., U.S.A.) weighing approximately 1 kg were used. For intravenous injection, a cannule was implanted in the cervical vein under pentobarbital anethesia, 3-4 days in advance of the experiment. To each test group each a prescribed dose of a test compound as dissolved or suspended in 0.5% tragacanth solution was orally administered, and 30 minutes thereafter, cisplatin (Sigma) 10 mg/kg (physiological salt solution, 3 ml/kg) was administered intravenously through the cannule.

In data set [3] the test system is cisplatin-induced emesis. The data set can be described thus: Effect on cisplatin-induced emesis in dog. The note with it: Canis lupus familiaris, 0.5 h, read-out: ED50 cisplatin-induced emesis, dog. It counts as in vivo, Beagle dogs. The method, then: Effect on Cisplatin-induced Emesis in Dog
Four to five Beagle dogs (body weight: 10-12 kg) per group were used to examine the inhibitory effect of the test compounds on cisplatin-induced emesis. To each test group each a prescribed dose of a test compound as dissolved or suspended in 0.5% tragacanth solution was orally administered, and 30 minutes thereafter, cisplatin (Sigma) 3 mg/kg (physiological salt solution, 3 ml/kg) was intravenously administered.

Data set [4] is described as follows: Inhibitory effect on exploratory activity. The arrangement: species or system Male mice (Std-ddy strain). As to conditions: mouse, in vivo; mice, oral, 2 hours after administration, counts for 3 minutes; read-out: ED50 inhibition of exploratory activity. The method, then: Inhibitory Effect on Exploratory Activity
Male mice (5 per group, Std-ddy strain, weighing 20-25 g) were used as the test animals, each of which was orally administered with a test compound which was dissolved or suspended in 0.5% tragacanth solution and after 2 hours from the administration put in a test cage (23×35×30 cm) on Animex activity meter (Farad Co.). Exploratory activity of each mouse was counted for the following 3 minutes. The mean counts of exploratory activities (count/3 min.) per group of the tested mice was compared with that of the control group to calculate the inhibition rate, and the effective dose (ED50 value) of each test compound for 50% inhibition was determined by probit analysis.

A further data set addresses Dopamine D2 receptor (Rattus norvegicus, UniProt P61169). The data set can be described thus: biochemical.
The target in data set [5] is T1, serotonin S3 (5-HT3) receptor (Rattus norvegicus, UniProt P35563).
T1 sequence (P35563 24-483): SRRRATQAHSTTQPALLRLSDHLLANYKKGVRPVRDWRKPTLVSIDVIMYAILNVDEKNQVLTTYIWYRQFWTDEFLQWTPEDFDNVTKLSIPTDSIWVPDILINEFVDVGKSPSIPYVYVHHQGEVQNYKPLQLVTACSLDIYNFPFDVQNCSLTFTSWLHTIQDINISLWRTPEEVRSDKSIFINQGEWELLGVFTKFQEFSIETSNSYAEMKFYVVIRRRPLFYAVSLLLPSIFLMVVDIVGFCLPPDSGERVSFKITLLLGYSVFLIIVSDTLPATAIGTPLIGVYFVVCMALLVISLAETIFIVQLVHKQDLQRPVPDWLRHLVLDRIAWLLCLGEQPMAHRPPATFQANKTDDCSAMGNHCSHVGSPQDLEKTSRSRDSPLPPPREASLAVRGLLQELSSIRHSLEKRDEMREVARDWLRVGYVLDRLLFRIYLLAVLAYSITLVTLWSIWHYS
The data set can be described thus: Inhibitory effect on von Bezold-Jarisch reflex (anti-serotonin S3 activity). It counts as in vivo, Male Wister rats. Set-up: Male Wister rats weighing 250-350 g were anesthetized with urethane; from tissue; host or cells: whole animal in vivo (male Wistar rats). As to conditions: 0.05 h, test compound intravenous 3 minutes before 2-methylserotonin 10-30 μg/kg i.v., read-out: ED50 von Bezold-Jarisch Reflex Inhibition. The method, then:
Inhibitory Effect on von Bezold-Jarisch Reflex (Anti-serotonin S3 Activity)
This test was carried out following the method of Fozard, et al. [cf. Arch. […] Male Wister rats weighing 250-350 g were anesthetized with urethane (1.5 g/kg, intraperitoneal) and set on their backs. Electrocardiogram (lead II) and a heart rate on the animals were recorded on inkwriting oscillograph via a biophysical amplifier and pulse rate tachometer, respectively. […] A fixed amount of 2-methylserotonin was repeatedly administered at 15-minute intervals until stable responses were obtained, and then a test compound was administered intravenously, 3 minutes before administration of 2-methylserotonin.

Data set [6] has as its target T1, serotonin S3 (5-HT3) receptor. The data set can be described thus: Serotonin S3 receptor-binding (in vitro receptor binding assay, [3H] quipazine). The arrangement: Crude synaptosome fractions prepared from rat brain were used as receptor samples; from tissue; host or cells: rat brain, crude synaptosome fraction.
Experimental: (§1) Dopamine D2 receptor-binding and serotonin S3 receptor-binding activities (in vitro receptor binding assay)
(§2) Crude synaptosome fractions prepared from rat brain were used as receptor samples, and [^3 H] spiperone (D2) and [^3 H] quipazine (S3), as labelled ligands. A buffer solution containing each of the receptor sample and labelled ligand (final volume: 1 ml) was incubated for a prescribed period in the presence of one of the test compounds at various concentration levels, and thereafter the radioactive ligand bound to the receptor was isolated onto a filter using a cell-harvester (Brandel Co.) and radioactivity on each filter was measured with a liquid scintillation counter to determine the total amount bound to the receptor. Specifically bound amount was calculated by subtracting non-specifically bound amount from the total amount bound, said non-specifically bound amount being that bound under the presence of an excessive amount of non-labelled ligand [spiperone (D2) and [^3 H] quipazine (S3)] which was concurrently measured. The concentration level of the test compound at which specific binding of labelled ligand was inhibited by 50% (IC50 value) was calculated by probit analysis.
Where [7] appears, read: dog, oral, 2 hours before apomorphine hydrochloride 0.3 mg/kg s.c., emetic episodes within 1 hour.
Where [8] appears, read: ferret, oral, 30 minutes before cisplatin 10 mg/kg i.v., emetic episodes within 3 hours.
[9] abbreviates: dog, oral, 30 minutes before cisplatin 3 mg/kg i.v., emetic episodes within 5 hours.

Counter-ions that a name gives are not always drawn. Like-named read-outs stand apart in the source and are kept apart here. Bounds are passed on as bounds.

Chain of Dopamine D2 receptor (P61169 whole entry): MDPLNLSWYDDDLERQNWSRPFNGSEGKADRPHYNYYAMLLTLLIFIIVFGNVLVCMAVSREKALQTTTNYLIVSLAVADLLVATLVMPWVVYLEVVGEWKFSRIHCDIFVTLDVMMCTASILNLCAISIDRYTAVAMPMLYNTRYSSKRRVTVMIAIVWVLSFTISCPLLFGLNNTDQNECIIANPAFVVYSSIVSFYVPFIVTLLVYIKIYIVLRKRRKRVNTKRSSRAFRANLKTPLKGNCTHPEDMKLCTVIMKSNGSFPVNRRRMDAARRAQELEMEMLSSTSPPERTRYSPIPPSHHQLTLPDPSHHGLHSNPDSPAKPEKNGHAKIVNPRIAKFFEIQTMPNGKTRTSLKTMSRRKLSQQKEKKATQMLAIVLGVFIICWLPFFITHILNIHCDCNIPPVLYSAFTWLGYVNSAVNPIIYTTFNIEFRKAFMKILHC
Experimental for Dopamine D2 receptor: as §1, §2

By ED50 is commonly meant the dose at which the effect has come halfway, by size or by number of responders. A word on the IC50: it is the concentration that gives 50% inhibition. As to `CCN1CCN(C)C[C@@H](NC(=O)c2cc(Br)c(NC)nc2OC)C1.O=C(O)/C=C/C(=O)O.O=C(O)/C=C/C(=O)O` [Example 1, (R)-5-bromo-N-(1-ethyl-4-methylhexahydro-1H-1,4-diazepin-6-yl)-2-methoxy-6-methylamino-3-pyridinecarboxamide Difumarate], the ED50 in data set [1] (setting [7]) stood at 0.19 mg/kg; with cisplatin-induced emesis [2] (setting [8]) it was 0.03 mg/kg; with cisplatin-induced emesis [3] (setting [9]), 0.29 mg/kg; in data set [5] it was 0.0019 mg/kg. Further, the ED50 at 2 h in data set [4] worked out at 48.5 mg/kg. Besides, the IC50 against Dopamine D2 receptor stood at 11.7 nM; in data set [6] (crude synaptosome fractions from rat brain, [3H] quipazine (S3), read-out: IC50 S3), 1 nM.

Consider `CCN(CC)CCNC(=O)c1cc(Cl)c(N)cc1OC.Cl.Cl.O` [metoclopramide hydrochloride, 4-amino-5-chloro-N-[2-(diethylamino)ethyl]-2-methoxybenzamide dihydrochloride monohydrate], for which the ED50 in data set [1] (setting [7]) was found to be 0.45 mg/kg; in the data set with cisplatin-induced emesis [2] (setting [8]), 0.98 mg/kg; in the data set on cisplatin-induced emesis [3] (setting [9]) it was 3.96 mg/kg; in data set [5], 0.181 mg/kg. The ED50 at 2 h in data set [4] came out at 22.4 mg/kg. Besides, in data set [6], the concentration for half-maximal inhibition (IC50) was 880 nM.

As for `Cc1nccn1CC1CCc2c(c3ccccc3n2C)C1=O.Cl` (centres unmarked) [ondansetron hydrochloride, 1,2,3,9-tetrahydro-9-methyl-3-[(2-methyl-1H-imidazol-1-yl)methyl]-4H-carbazol-4-one hydrochloride], the ED50 was greater than 10 mg/kg in data set [1] (setting [7]), 0.1 mg/kg in the data set with cisplatin-induced emesis [2] (setting [8]), 0.16 mg/kg in the data set on cisplatin-induced emesis [3] (setting [9]) and 0.0011 mg/kg in data set [5]. Moreover, the concentration for half-maximal inhibition (IC50) against Dopamine D2 receptor was greater than 100000 nM.

With `CN1C2CCCC1CC(NC(=O)c1nn(C)c3ccccc13)C2` (stereo not drawn) [granisetron hydrochloride, endo-1-methyl-N-(9-methyl-9-azobicyclo-[3.3.1]non-3-yl)-1H-indazole-3-carboxamide hydrochloride], the IC50 against Dopamine D2 receptor is greater than 100000 nM. In addition, the ED50 in data set [5] came out at 0.00026 mg/kg.

Take `O=c1[nH]c2ccccc2n1CCCN1CCC(n2c(=O)[nH]c3cc(Cl)ccc32)CC1` [domperidone, 5-chloro-1-[1-[3-(2,3-dihydro-2-oxo-1H-benzimidazol-1-yl)propyl]-4-piperidinyl]-1,3-dihydro-2H-benzimidazol-2-one]: the ED50 in data set [1] (po, 2 h) is 0.02 mg/kg; in the data set on cisplatin-induced emesis [2] (po), greater than 10 mg/kg; in the data set on cisplatin-induced emesis [3] (po), greater than 3 mg/kg.
